Assays:
[1] = system: Aβtotal; test: In vivo efficacy B-1a/B-2a: brain soluble Aβtotal in non-transgenic rodents, ELISA; parameters: species or system mouse; details: dose 30 mg/kg oral dosing, brain soluble fraction, untreated animals (Ctrl) set at 100; for Aβtotal (% vs Ctrl)_Mean: 30 mg/kg; for response vs control in vivo at 30 mg/kg: Mus musculus, po, 4 h, read-out: Aβtotal (% vs Ctrl)_Mean
Text: To determine whether acute administration of an Aβ42 lowering agent would reduce Aβ42 levels in vivo, non-transgenic rodents, e.g. mice or rats were used. Animals treated with the Aβ42 lowering agent were examined and compared to those untreated or treated with vehicle and brain levels of soluble Aβ42 and total Aβ were quantitated by standard techniques, for example, using ELISA. Treatment periods varied from hours (h) to days and were adjusted based on the results of the Aβ42 lowering once a time course of onset of effect could be established.
A typical protocol for measuring Aβ42 lowering in vivo is shown but it is only one of many variations that could be used to optimize the levels of detectable Aβ. For example, Aβ42 lowering compounds were formulated in 20% of Captisol® (a sulfobutyl ether of β-cyclodextrin) in water or 20% hydroxypropyl β cyclodextrin. The Aβ42 lowering agents were administered as a single oral dose or by any acceptable route of administration to overnight fasted animals. After 4 h, the animals were sacrificed and Aβ42 levels were analysed.
Blood was collected by decapitation and exsanguinations in EDTA-treated collection tubes. Blood was centrifuged at 1900 g for 10 minutes (min) at 4° C. and the plasma recovered and flash frozen for later analysis. The brain was removed from the cranium and hindbrain. The cerebellum was removed and the left and right hemisphere were separated. The left hemisphere was stored at −18° C. for quantitative analysis of test compound levels. The right hemisphere was rinsed with phosphate-buffered saline (PBS) buffer and immediately frozen on dry ice and stored at −80° C. until homogenization for biochemical assays.
Mouse brains from non-transgenic animals were resuspended in 8 volumes of 0.4% DEA (diethylamine)/50 mM NaCl containing protease inhibitors (Roche-11873580001 or 04693159001) per gram of tissue, e.g. for 0.158 g brain, add 1.264 mL of 0.4% DEA. All samples were homogenized in the FastPrep-24 system (MP Biomedicals) using lysing matrix D (MPBio #6913-100) at 6 m/s for 20 seconds. Homogenates were centrifuged at 20800×g for 5 min and supernatants collected. Supernatants were centrifuged at 221.300×g for 50 min. The resulting high speed supernatants were then transferred to fresh eppendorf tubes. Nine parts of supernatant were neutralized with 1 part 0.5 M Tris-HCl pH 6.8 and used to quantify Aβtotal and Aβ42.
To quantify the amount of Aβtotal and Aβ42 in the soluble fraction of the brain homogenates, Enzyme-Linked-Immunosorbent-Assays were used. Briefly, the standards (a dilution of synthetic Aβ1-40 and Aβ1-42, Bachem) were prepared in 1.5 mL Eppendorf tube in Ultraculture, with final concentrations ranging from 10000 to 0.3 pg/mL. The samples and standards were co-incubated with HRPO-labelled N-terminal antibody JRF/rAμ/2 for Aβ42 detection and with the biotinylated mid-domain antibody 4G8 for Aβtotal detection. 50 μl of conjugate/sample or conjugate/standards mixtures were then added to the antibody-coated plate (the capture antibodies selectively recognize the C-terminal end of Aβ42, antibody JRF/cAβ42/26, for Aβ42 detection and the N-terminus of AB, antibody JRF/rAβ/2, for Aβtotal detection). The plate was allowed to incubate overnight at 4° C. in order to allow formation of the antibody-amyloid complex. Following this incubation and subsequent wash steps the ELISA for Aβ42 quantification was finished by addition of Quanta Blu fluorogenic peroxidase substrate according to the manufacturer's instructions (Pierce Corp., Rockford, Ill.). A reading was performed after 10 to 15 min (excitation 320 nm/emission 420 nm).
For Aβtotal detection, a Streptavidine-Peroxidase-Conjugate was added, followed 60 min later by an additional wash step and addition of Quanta Blu fluorogenic peroxidase substrate according to the manufacturer's instructions (Pierce Corp., Rockford, Ill.). A reading was performed after 10 to 15 min (excitation 320 nm/emission 420 nm). […]

[2] = system: Aβtotal; test: Screening for γ-secretase-modulating activity: Aβtotal in supernatant of SKNBE2 cells carrying hAPP 695 wild type (Alphalisa); type: cell-based, human; details: overnight incubation, Alphalisa on supernatant
How it was run: (§1)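 Secreted Aβ42 (C-terminal/N-terminal antibody pair) and Aβtotal (N-terminal/mid-region pair) were quantified by AlphaLISA after overnight compound exposure of wild-type hAPP 695 SKNBE2 cells at 37 °C. Values expressed relative to compound-free maximum, with IC50 from nonlinear 4-parameter regression.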

[3] = system: Aβ42; test: Screening for γ-secretase-modulating activity: Aβ42 in supernatant of SKNBE2 cells carrying hAPP 695 wild type (Alphalisa); type: cell-based, human; details: overnight incubation, Alphalisa on supernatant
How it was run: as §1

[4] = SKNBE2 human neuroblastoma cells carrying hAPP 695 wild type
[5] = Homo sapiens, SKNBE2, SKNBE2 human neuroblastoma cells carrying hAPP 695 wild type

SMILES	Aβtotal (% vs Ctrl)_Mean [1] [% vs Ctrl]	IC50 [2, 4] [µM]	IC50 [3, 4] [nM]	response vs control in vivo at 30 mg/kg [1] [%]	IC50 [2, 5] [µM]	IC50 [3, 5] [nM]
COc1c(C#N)ccc2[nH]c(-c3cn4c(n3)C(c3ccc(F)cc3C)OCC4)cc12 (stereo not drawn) [Compound 47, 2-[8-(4-fluoro-2-methylphenyl)-5,6-dihydro-8H-imidazo[2,1-c][1,4]oxazin-2-yl]-4-methoxy-1H-indole-5-carbonitrile]	117	> 10	23	–	–	–
N#Cc1ccc2[nH]c(-c3cn4c(n3)C(c3ccccc3Cl)CCC4)cc2c1 (stereo not drawn) [Compound 16, 2-[8-(2-chlorophenyl)-5,6,7,8-tetrahydroimidazo[1,2-a]pyridin-2-yl]-1H-indole-5-carbonitrile]	–	–	–	95	> 10	112
N#Cc1ccc2[nH]c(-c3nc4n(n3)CCCC4c3ccccc3C(F)(F)F)cc2c1 (stereo not drawn) [Compound 18, 2-[5,6,7,8-tetrahydro-8-[2-(trifluoromethyl)phenyl][1,2,4]triazolo[1,5-a]pyridin-2-yl]-1H-indole-5-carbonitrile]	–	–	–	102	> 10	117
Cc1cc(F)ccc1C1CCCn2cc(-c3cc4cc(C#N)ccc4[nH]3)nc21 (stereo not drawn) [Compound 64, 2-[8-(4-fluoro-2-methylphenyl)-5,6,7,8-tetrahydroimidazo[1,2-a]pyridin-2-yl]-1H-indole-5-carbonitrile]	100	> 10	68	–	–	–
Cc1cn(-c2ccc3[nH]c(-c4nc5n(n4)CCOC5c4ccccc4C(F)(F)F)cc3c2)cn1 (stereo not drawn) [Compound 37, 5,6-dihydro-2-[5-(4-methyl-1H-imidazol-1-yl)-1H-indol-2-yl]-8-[2-(trifluoromethyl)phenyl]-8H-[1,2,4]triazolo[5,1-c][1,4]oxazine]	–	–	–	93	0.832	48
Cc1cc(F)ccc1C1CCCn2cc(-c3cc4cc(C#N)ccc4[nH]3)nc21 (stereo not drawn) [Compound 4, 2-[8-(4-fluoro-2-methylphenyl)-5,6,7,8-tetrahydroimidazo[1,2-a]pyridin-2-yl]-1H-indole-5-carbonitrile]	82	–	87	–	> 10	–
Cc1cc(F)ccc1C1CCCn2cc(-c3cc4cc(C#N)ccc4[nH]3)nc21 (stereo not drawn) [Compound 63, 2-[8-(4-fluoro-2-methylphenyl)-5,6,7,8-tetrahydroimidazo[1,2-a]pyridin-2-yl]-1H-indole-5-carbonitrile]	121	> 10	4470	–	–	–
Cc1ccccc1C1CCCn2nc(-c3cc4cc(C#N)ccc4[nH]3)nc21 (stereo not drawn) [Compound 12, 2-[5,6,7,8-tetrahydro-8-(2-methylphenyl)[1,2,4]triazolo[1,5-a]pyridin-2-yl]-1H-indole-5-carbonitrile]	91	–	126	–	> 10	–
Cc1cn(-c2cc3cc(-c4nc5n(n4)CCCC5c4ccc(F)cc4C)[nH]c3cn2)cn1 (stereo not drawn) [Compound 71, 8-(4-fluoro-2-methylphenyl)-5,6,7,8-tetrahydro-2-[5-(4-methyl-1H-imidazol-1-yl)-1H-pyrrolo[2,3-c]pyridin-2-yl]-[1,2,4]triazolo[1,5-a]pyridine]	–	–	–	115	> 10	65
COc1c(C#N)ccc2[nH]c(-c3nc4n(n3)CCOC4c3ccccc3C(F)(F)F)cc12 (stereo not drawn) [Compound 55, 2-[5,6-dihydro-8-[2-(trifluoromethyl)phenyl]-8H-[1,2,4]triazolo[5,1-c][1,4]oxazin-2-yl]-4-methoxy-1H-indole-5-carbonitrile]	–	–	–	111	> 10	72
Cc1cn(-c2ccc3[nH]c(-c4nc5n(n4)CCCC5c4ccc(F)cc4C)cc3n2)cn1 (stereo not drawn) [Compound 65, 8-(4-fluoro-2-methylphenyl)-5,6,7,8-tetrahydro-2-[5-(4-methyl-1H-imidazol-1-yl)-1H-pyrrolo[3,2-b]pyridin-2-yl]-[1,2,4]triazolo[1,5-a]pyridine]	–	–	46	108	7.24	–
Cc1cn(-c2ccc3[nH]c(-c4nc5n(n4)CCCC5c4ccc(F)cc4C)cc3c2)cn1 (stereo not drawn) [Compound 73, 8-(4-fluoro-2-methylphenyl)-5,6,7,8-tetrahydro-2-[5-(4-methyl-1H-imidazol-1-yl)-1H-indol-2-yl]-[1,2,4]triazolo[1,5-a]pyridine]	–	–	–	80	> 10	43
Cc1cc(-c2ccc3[nH]c(-c4nc5n(n4)CCCC5c4ccccc4C)cc3n2)ccn1 (stereo not drawn) [Compound 6, 5,6,7,8-tetrahydro-8-(2-methylphenyl)-2-[5-(2-methyl-4-pyridinyl)-1H-pyrrolo[3,2-b]pyridin-2-yl]-[1,2,4]triazolo[1,5-a]pyridine]	–	–	–	87	> 10	47
COc1c(C#N)ccc2[nH]c(-c3nc4n(n3)CCOC4c3ccc(F)cc3C)cc12 (stereo not drawn) [Compound 111, 2-[8-(4-fluoro-2-methylphenyl)-5,6-dihydro-8H-[1,2,4]triazolo[5,1-c][1,4]oxazin-2-yl]-4-methoxy-1H-indole-5-carbonitrile]	–	–	93	120	> 10	–
Cc1cc(F)ccc1C1CCCn2nc(-c3cc4cc(C#N)ccc4[nH]3)nc21 (stereo not drawn) [Compound 9, 2-[8-(4-fluoro-2-methylphenyl)-5,6,7,8-tetrahydro[1,2,4]triazolo[1,5-a]pyridin-2-yl]-1H-indole-5-carbonitrile]	97	–	138	–	> 10	–
COc1c(C#N)ccc2[nH]c(-c3cn4c(n3)C(c3ccc(F)cc3C)OCC4)cc12 (stereo not drawn) [Compound 46, 2-[8-(4-fluoro-2-methylphenyl)-5,6-dihydro-8H-imidazo[2,1-c][1,4]oxazin-2-yl]-4-methoxy-1H-indole-5-carbonitrile]	88	–	54	–	> 10	–
Cc1cc(F)ccc1C1OCCn2cc(-c3cc4nc(-c5cnn(C)c5)ccc4[nH]3)nc21 (single isomer, unassigned) [Compound 102, 8-(4-fluoro-2-methylphenyl)-5,6-dihydro-2-[5-(1-methyl-1H-pyrazol-4-yl)-1H-pyrrolo[3,2-b]pyridin-2-yl]-8H-imidazo[2,1-c][1,4]oxazine]	–	> 10	89	121	–	–

From patent US9115143B2, “Substituted indole derivatives as gamma secretase modulators” (Janssen Pharmaceuticals, Inc., priority 2011, dated 2015)
